# Laboratory results from patent US20250002526A1, “PHARMACEUTICAL COMPOSITION HAVING ANTI-CANCER IMMUNOSTIMULATING EFFECT AND/OR IMMUNE CHECKPOINT INHIBITION POTENTIATING EFFECT” (KYUSHU UNIVERSITY, NATIONAL UNIVERSITY CORPORATION, priority 2021, published 2025).
# Structures can show the parent of a compound that is named as a salt. Where two headings read alike, the source gives them in different places.
# Test system: SULT2B1b-mediated CS production in E0771-SULT cells
# Assay: CS production inhibitory effect in E0771-SULT cells (LC/MS/MS quantification of CS)
# Assay type: cell-based, mouse
# Conditions: for activity at 10 µM / activity at 20 µM / IC50 / activity at 1 µM: Mus musculus; for activity at 10 µM: relative to control (100%); for IC50: read-out: IC50 value (CS production); for activity at 1 µM: compound groups B-D
# Procedure: CS in each human cancer tissue sample was quantified by a method described in NPL 2. To monitor the amounts of CS and/or oxysterol generated in E0771, 3LL, EG.7-OVA, and MC38 cells irrespective of the presence or absence of SULT2B1b expression, cells of each type were seeded in a 6-well plate at 5×10^5 cells/well, and the culture supernatant and cell pellet were collected after 24 hours. Subsequently, deuterium-labeled internal standard (IS) compounds (d7-CS [[…]] and d6-25-hydroxycholesterol) were added to fractions of the culture supernatant and cell pellet, each of which was subjected to extraction with 1 mL of extraction solvent (methanol/chloroform/water=5:2:2 [v/v/v]) to extract CS and oxysterol from the culture supernatant or cell pellet.
# Each sample was vigorously mixed with a vortex for 1 minute, and then ultrasonicated for 5 minutes. Thereafter, the sample was centrifuged at 16,000×g and 4° C. for 5 minutes, and the supernatant (700 μl) was collected in a clean tube. Into this, 235 μl of chloroform and 155 μl of water were added and mixed, and the resultant was then subjected to vortexing followed by centrifugation to separate into an aqueous layer and an organic layer. Subsequently, 200 μl of the lowermost layer was dried under a nitrogen flow.
# The dried sample was dissolved in 50 μl of methanol, and CS and oxysterol therein were quantified by liquid chromatography-tandem mass spectrometry (LC/MS/MS) with a triple quadrupole mass spectrometer (LCMS-8060; Shimadzu Corporation) equipped with an electrospray ionization (ESI) ion source in a multiple reaction monitoring (MRM) mode.
# • Column: Inertsil ODS-4 (2.1×150 mm; particle size: 3 μm; GL Sciences Inc.) • Column temperature: 40° C. • Flow rate: 0.3 ml/min • Mobile phase: (A) water/acetonitrile (1:2, v/v) containing 5 mM ammonium acetate (B) Methanol/Isopropanol (1:19, v/v) Containing 5 mM Ammonium Acetate • Gradient curve: 0 min→22 min: (B) 0%→100%, • 22 min→27 min: (B) 100%, • 27 min→27.1 min: (B) 100%→0%, • 27.1 min→30 min: (B) 0% • Injection volume: 5 μl • Mass spectrometry mode: positive and negative ion modes • Electrospray voltage: 4 kV in positive ion mode, −3.5 kV in negative ion mode • Nebulizer gas flow rate: 3.0 L/min • Drying gas flow rate: 10.0 L/min • Desolvation temperature: 250° C. • Heat block temperature: 400° C. • Detector voltage: 2.16 kV • Used were MRM mode and 2 msec of dwell time per channel.
# Absolute CS and oxysterol contents were calculated from calibration curves. MRM calibration curves were prepared with chromatographic peak areas for the analytes relative to peak areas for internal standards through three times of analysis for standard solutions.
# The CS production effects of test compounds (compounds 1 to 19, 21, 23, 25, and 27 to 32) were evaluated with the mouse breast cancer cell line E0771 expressing SULT2B1b (E0771-SULT cells).
# Specifically, as in the above description in experimental procedure (12), E0771-SULT cells were seeded in a 6-well plate at a proportion of 5×10^5 cells/well, and cultured in the presence or absence (control) of each test compound for 24 hours. After culturing, CS generated in E0771-SULT cells was quantified by LC/MS/MS according to the description in experimental procedure (12). The CS production capacity (% activity) of cells cultured in the presence of each test compound was evaluated from the percentage relative to the CS production level (control) (100%) in E0771-SULT cells cultured in the absence of the test compound, and the CS production inhibitory effect of the test compound was evaluated.
# [1] = 24 h, read-out: CS production % activity at 10 μM, E0771-SULT cells, 24 hours, test compound 10 μM (Table 1)
# [2] = 24 h, read-out: CS production % activity at 10 μM, E0771-SULT cells, 24 hours, third concentration column of Table 1, head again printed 10 μM
# [3] = 24 h, read-out: CS production % activity at 20 μM, E0771-SULT cells, 24 hours, test compound 20 μM, relative to control without compound (100%)
# [4] = E0771-SULT cells, 24 hours, test compound 20 μM, relative to control without compound (100%), read-out: CS production % activity at 20 μM
# [5] = E0771-SULT cells, 24 hours, read-out: CS production % activity at 1 μM
# [6] = 24 h, E0771-SULT cells, 24 hours, test compound 20 μM, relative to control without compound (100%), read-out: CS production % activity at 20 μM
# [7] = 24 h, E0771-SULT cells, 24 hours, read-out: CS production % activity at 1 μM
smiles,measurement,setting,value
"C[C@H](CCC(=O)O)[C@H]1CC[C@H]2[C@@H]3CC=C4C[C@@H](OC(=O)C(F)(F)F)CC[C@]4(C)[C@H]3CC[C@]12C [Compound 2, (R)-4-((3S,8S,9S,10R,13R,14S,17R)-10,13-dimethyl-3-(2,2,2-trifluoroacetoxy)-2,3,4,7,8,9,10,11,12,13,14,15,16,17-tetradecahydro-1H-cyclopenta[a]phenanthren-17-yl)pentanoic acid]",activity at 10 µM,[1],34%
same,activity at 10 µM,[2],52.5%
same,activity at 20 µM,[3],36.8%
same,IC50,,6 µM
"C#CC1(OC(C)=O)CCC2C3CCC4=CC(=O)CCC4C3CCC21C (centres unmarked) [Compound 30, 19-norethisterone-acetate, reference compound]",activity at 20 µM,[4],61.9%
same,activity at 1 µM,[5],80.1%
same,IC50,E0771-SULT cells,34.3 µM
"CC1(C2CC[C@H]3[C@@H]4CC=C5C[C@@H](O)CC[C@]5(C)[C@H]4CC[C@]23C)CS1 (stereo partly drawn) [Compound 32, (3S,8S,9S,10R,13S,14S)-10,13-dimethyl-17-(2-methylthiiran-2-yl)-2,3,4,7,8,9,10,11,12,13,14,15,16,17-tetradecahydro-1H-cyclopenta[a]phenanthren-3-ol]",activity at 20 µM,[6],54.8%
same,activity at 1 µM,[7],49.7%
same,IC50,E0771-SULT cells,12.8 µM
"CC(=O)C1=CC[C@H]2[C@@H]3CC=C4CC(OC(=O)CCN5CCOCC5)CC[C@]4(C)[C@H]3CC[C@]12C (stereo partly drawn) [Compound 15, (8R,9S,10R,13S,14S)-17-acetyl-10,13-dimethyl-2,3,4,7,8,9,10,11,12,13,14,15-dodecahydro-1H-cyclopenta[a]phenanthren-3-yl3-morpholinopropanoate]",activity at 10 µM,[1],40.9%
same,activity at 10 µM,[2],63%
same,activity at 20 µM,[3],38.9%
same,IC50,,7.8 µM
"COC(=O)C1CCCN1C(=O)CCC(=O)OCC(=O)C1(OC(C)=O)CCC2C3CCC4=CC(=O)CCC4(C)C3CCC21C [Compound 18, methyl (4-(2-8((8R,9S,10R,13S,14S,17R)-17-acetoxy-10,13-dimethyl-3-oxo-2,3,6,7,8,9,10,11,12,13,14,15,16,17-tetradecahydro-1H-cyclopenta[a]phenanthren-17-yl)-2-oxoethoxy)-4-oxobutanoyl)-L-prolinate]",activity at 10 µM,[1],60.6%
same,activity at 10 µM,[2],71.7%
same,activity at 20 µM,[3],54.8%
same,IC50,,16 µM
"C#CCOCCNC(=O)CC[C@@H](C)[C@H]1CC[C@H]2[C@@H]3CC=C4C[C@@H](OS(=O)(=O)O)CC[C@]4(C)[C@H]3CC[C@]12C [Compound 21, (3S,8S,9S,10R,13R,14S,17R)-10,13-dimethyl-17-((R)-5-oxo-5-((2-(prop-2-yn-1-yloxy)ethyl)amino)pentan-2-yl)-2,3,4,7,8,9,10,11,12,13,14,15,16,17-tetradecahydro-1H-cyclopenta[a]phenanthren-3-yl sulfate]",activity at 20 µM,[3],85.7%
"C[C@]12CCC(OC(=O)CCN3CCOCC3)CC1=CC[C@@H]1[C@@H]2CC[C@]2(C)C(=O)CC[C@@H]12 (stereo partly drawn) [Compound 28, (8R,9S,10R,13S,14S)-10,13-dimethyl-17-oxo-2,3,4,7,8,9,10,11,12,13,14,15,16,17-tetradecahydro-1H-cyclopenta[a]phenanthren-3-yl 3-morpholinopropanoate]",activity at 20 µM,[6],42%
same,activity at 1 µM,[7],37.8%
same,IC50,E0771-SULT cells,6.3 µM
"CC(=O)C1=CC[C@H]2[C@@H]3CC[C@H]4C[C@H](OC(=O)CCN5CCOCC5)CC[C@]4(C)[C@H]3CC[C@]12C [Compound 16, (3R,5S,8R,9S,10S,13S,14S)-17-acetyl-10,13-dimethyl-2,3,4,5,6,7,8,9,10,11,12,13,14,15-tetradecahydro-1H-cyclopenta[a]phenanthren-3-yl3-morpholinopropanoate]",activity at 10 µM,[1],49.9%
same,activity at 10 µM,[2],55.7%
same,activity at 20 µM,[3],42.3%
same,IC50,,9.6 µM
"CC(CCC(=O)N1CCSCC1)C1CCC2C3CC=C4CC(O)CCC4(C)C3CCC12C [Compound 9, (R)-4-((3S,8S,9S,10R,13R,14S,17R)-3-hydroxy-10,13-dimethyl-2,3,4,7,8,9,10,11,12,13,14,15,16,17-tetradecahydro-1H-cyclopenta[a]phenanthren-17-yl)-1-thiomorpholinopentan-1-one]",activity at 20 µM,[3],87.2%
"C#CCOCCOCCOCCOCCOCCOCCNC(=O)CC[C@@H](C)[C@H]1CC[C@H]2[C@@H]3CC=C4C[C@@H](OS(=O)(=O)O)CC[C@]4(C)[C@H]3CC[C@]12C [Compound 27, (3S,8S,9S,10R,13R,14S,17R)-10,13-dimethyl-17-((R)-23-oxa-4,7,10,13,16,19-hexaoxa-22-azaheptacos-1-yn-26-yl)-2,3,4,7,8,9,10,11,12,13,14,15,16,17-tetradecahydro-1H-cyclopenta[a]phenanthren-3-yl sulfate]",CS production % activity at 20 μM,"E0771-SULT cells, 24 hours, test compound 20 μM, relative to control without compound (100%)",59.0%
"C#CC1(O)CCC2C3CCC4=CC(=O)CCC4C3CCC21C (centres unmarked) [Compound 31, 19-norethindrone, reference compound]",activity at 20 µM,[4],77.5%
same,activity at 1 µM,[5],82.8%
same,IC50,E0771-SULT cells,68.4 µM
"C#C[C@]1(O)CC[C@H]2[C@@H]3CC=C4C[C@@H](O)CC[C@]4(C)[C@H]3CC[C@@]21C [Compound 29, (3S,8R,9S,10R,13S,14S,17R)-17-ethynyl-10,13-dimethyl-2,3,4,7,8,9,10,11,12,13,14,15,16,17-tetradecahydro-1H-cyclopenta[a]phenanthrene-3,17-diol]",activity at 1 µM,"24 h, read-out: CS production % activity at 1 μM, E0771-SULT cells, 24 hours",50.1%
same,activity at 20 µM,[3],45%
same,IC50,,11.8 µM
"C[C@H](CCC(=O)O)[C@H]1CC[C@H]2[C@@H]3CC[C@@H]4C[C@H](O)CC[C@]4(C)[C@H]3CC[C@]12C [Compound 14, (4R)-4-[(3R,5R,8R,9S,10S,13R,14S,17R)-3-hydroxy-10,13-dimethyl-2,3,4,5,6,7,8,9,11,12,14,15,16,17-tetradecahydro-1H-cyclopenta[a]phenanthren-17-yl]pentanoic acid]",activity at 20 µM,[4],31.5%
same,activity at 10 µM,"E0771-SULT cells, 24 hours, third concentration column of Table 1, head again printed 10 μM, read-out: CS production % activity at 10 μM",62%
same,IC50,E0771-SULT cells,7.2 µM
"C[C@H](CCC(=O)N1CCOCC1)[C@H]1CC[C@H]2[C@@H]3CC=C4C[C@H](n5cc(CN(C)C)nn5)CC[C@]4(C)[C@H]3CC[C@]12C [Compound 13, (R)-4-((3R,8S,9S,10R,13R,14S,17R)-3-(4-((dimethylamino)methyl)-1H-1,2,3-triazol-1-yl)-10,13-dimethyl-2,3,4,7,8,9,10,11,12,13,14,15,16,17-tetradecahydro-1H-cyclopenta[a]phenanthren-17-yl)-1-morpholinopentan-1-one]",activity at 20 µM,[3],65.8%
